According to patent publication US20250197384A1, “AZOLE COMPOUND AND ANTIFUNGAL AGENT” (NIHON NOHYAKU CO., LTD., priority 2022, published 2025):
In brackets after ≈: the same amount, converted by molar mass. Blank lines part the entries; values can stand above or below the compound they belong to.

How the values were obtained:
Format in all cases: cell-based
[1] = tested on: Trichophyton rubrum NBRC6203; assay: In vitro anti-tinea fungus activity test (T. rubrum); details: Table 22, 27° C. for 5 days, alamar Blue, minimum concentration showing 80% or more inhibition
Procedure: (§1) Trichophyton rubrum NBRC6203 and Trichophyton mentagrophytes TIMM2789 were used as the strains. The test fungi were cultured on a Sabouraud dextrose agar slant medium at 27° C. for 10-13 days, and then suspended in sterilized saline. The number of cells in this suspension was counted using a hemocytometer, and the same suspension was adjusted to a cell concentration of 2×10^6 conidia/mL, and this was used as an inoculum. Each compound was dissolved in dimethyl sulfoxide to a predetermined concentration, and diluted 50-fold with 0.165 M MOPS buffered RPMI 1640 liquid medium, and each diluted solution was dispensed into a 96-well microplate by each 100 μL. The inoculum was diluted 50-fold with 0.165 M MOPS buffered RPMI 1640 liquid medium containing 20% alamar Blue™, and the diluted solution was inoculated into the 96-well microplate containing the compound by each 100 μL (final inoculum amount 2×10^4 conidia/mL). After static culture at 27° C. for 3 days (Trichophyton mentagrophytes) or for 5 days (Trichophyton rubrum), the degree of color development of the alamar Blue™ was measured using a microplate reader (O.D. 570-595 nm), and the minimum concentration showing 80% or more inhibition was defined as the minimum inhibitory concentration (MIC).

[2] = tested on: Aspergillus fumigatus TIMM0063; assay: In vitro anti-Aspergillus activity test; details: for minimum inhibitory concentration against various fungi (MIC) A. fumigatus: Table 22, 35° C. for 48 hr, alamar Blue, minimum concentration showing 80% or more inhibition; for A. fumigatus (MIC): 80% or more inhibition, unit inferred
Procedure: Aspergillus fumigatus TIMM0063 was used as the strain. The test fungi were cultured on a Potato dextrose agar slant medium at 35° C. for 4 days, and then sterilized saline containing 0.1% (v/v) Tween 80 was added to release the conidia. This conidial suspension was filtered through sterile gauze, and the number of conidia was counted using a hemocytometer. The same solution was adjusted to a conidial concentration of 1×10^6 conidia/mL, and this was used as an inoculum. Each compound was dissolved in dimethyl sulfoxide to a predetermined concentration, and diluted 50-fold with 0.165 M MOPS buffered RPMI 1640 liquid medium, and each diluted solution was dispensed into a 96-well microplate by each 100 μL. The inoculum was diluted 50-fold with 0.165 M MOPS buffered RPMI 1640 liquid medium containing 20% alamar Blue™, and the diluted solution was inoculated into the 96-well microplate containing the compound by each 100 μL (final inoculum amount 1.0×10^4 conidia/mL). After static culture at 35° C. for 48 hr, the degree of color development of the alamar Blue™ was measured using a microplate reader (O.D. 570-595 nm), and the minimum concentration showing 80% or more inhibition was defined as the minimum inhibitory concentration (MIC).

[3] = tested on: Candida albicans NBRC1270; assay: In vitro anti-Candida activity test; details: for minimum inhibitory concentration against various fungi (MIC) C. albicans: Table 22, 35° C. for 24 hr, alamar Blue, minimum concentration showing 80% or more inhibition; for C. albicans (MIC): 80% or more inhibition, unit inferred
Procedure: Candida albicans NBRC1270 was used as the strain. The test fungi were cultured on a Sabouraud dextrose agar slant medium at 35° C. for 24 hr, and then suspended in sterilized saline. The number of cells in this suspension was counted using a hemocytometer, and the same suspension was adjusted to a cell concentration of 1.5×10^5 cells/mL, and this was used as an inoculum. Each compound was dissolved in dimethyl sulfoxide to a predetermined concentration, and diluted 50-fold with 0.165 M MOPS buffered RPMI 1640 liquid medium, and each diluted solution was dispensed into a 96-well microplate by each 100 μL. The inoculum was diluted 50-fold with 0.165 M MOPS buffered RPMI 1640 liquid medium containing 20% alamar Blue™, and the diluted solution was inoculated into the 96-well microplate containing the compound by each 100 μL (final inoculum amount 1.5×10^3 cells/mL). After static culture at 35° C. for 24 hr, the degree of color development of the alamar Blue™ was measured using a microplate reader (O.D. 570-595 nm), and the minimum concentration showing 80% or more inhibition was defined as the minimum inhibitory concentration (MIC).

[4] = tested on: Trichophyton mentagrophytes TIMM2789; assay: In vitro anti-tinea fungus activity test (T. mentagrophytes); details: Table 22, 27° C. for 3 days, alamar Blue, minimum concentration showing 80% or more inhibition
Procedure: as §1

SMILES: CC(C)(C)OC(=O)Nc1cnc(C2CS/C(=C(/C#N)n3cncn3)S2)c(Cl)c1 (stereo not drawn) [compound 12]
minimum inhibitory concentration against various fungi (MIC) T. rubrum [1]: 10 ng/mL (≈ 0.0229 µM)
minimum inhibitory concentration against various fungi (MIC) A. fumigatus [2]: 100 ng/mL (≈ 0.229 µM)
minimum inhibitory concentration against various fungi (MIC) C. albicans [3]: 10 ng/mL (≈ 0.0229 µM)
minimum inhibitory concentration against various fungi (MIC) T. mentagrophytes [4]: 100 ng/mL (≈ 0.229 µM)

SMILES: CCOC(=O)Nc1cnc(C2CS/C(=C(/C#N)n3ccnc3)S2)c(Cl)c1 (stereo not drawn) [compound 16]
minimum inhibitory concentration against various fungi (MIC) T. rubrum [1]: ≤1 ng/mL
minimum inhibitory concentration against various fungi (MIC) A. fumigatus [2]: 5 ng/mL (≈ 0.0123 µM)
minimum inhibitory concentration against various fungi (MIC) C. albicans [3]: 2.5 ng/mL (≈ 0.00613 µM)
minimum inhibitory concentration against various fungi (MIC) T. mentagrophytes [4]: 10 ng/mL (≈ 0.0245 µM)

SMILES: N#C/C(=C1/SC[C@@H](c2ncc(NC(=O)OCc3ccccc3)cc2Cl)S1)n1cncn1 [compound 100]
A. fumigatus (MIC) ([2]; Table 23, 35° C. for 48 hr): 2.5 ng/mL
C. albicans (MIC) ([3]; Table 23, 35° C. for 24 hr): 0.63 ng/mL

SMILES: N#C/C(=C1/SC[C@@H](c2ncc(NC(=O)OCc3ccccc3)cc2F)S1)n1cncn1 [compound 106]
A. fumigatus (MIC) ([2]; Table 23, 35° C. for 48 hr): 5 ng/mL
C. albicans (MIC) ([3]; Table 23, 35° C. for 24 hr): 1.25 ng/mL

SMILES: CCCOC(=O)Nc1cnc([C@@H]2CS/C(=C(/C#N)n3cncn3)S2)c(F)c1 [compound 110]
A. fumigatus (MIC) ([2]; Table 23, 35° C. for 48 hr): 5 ng/mL
C. albicans (MIC) ([3]; Table 23, 35° C. for 24 hr): 10 ng/mL

SMILES: N#C/C(=C1/SC[C@@H](c2ncc(NC(=O)OCC3CC3(F)F)cc2F)S1)n1cncn1 (stereo partly drawn) [compound 131]
A. fumigatus (MIC) ([2]; Table 24, 35° C. for 48 hr): 10 ng/mL
C. albicans (MIC) ([3]; Table 24, 35° C. for 24 hr): 10 ng/mL

SMILES: N#C/C(=C1/SC[C@@H](c2ncc(NC(=O)OCC3(F)CC3)cc2Cl)S1)n1cncn1 [compound 155]
A. fumigatus (MIC) ([2]; Table 25, 35° C. for 48 hr): 10 ng/mL
C. albicans (MIC) ([3]; Table 25, 35° C. for 24 hr): 2.5 ng/mL

Second part, the compound after the results:

minimum inhibitory concentration against various fungi (MIC) T. rubrum [1]: ≤1 ng/mL
minimum inhibitory concentration against various fungi (MIC) A. fumigatus [2]: 5 ng/mL (≈ 0.0132 µM)
minimum inhibitory concentration against various fungi (MIC) C. albicans [3]: 10 ng/mL (≈ 0.0264 µM)
minimum inhibitory concentration against various fungi (MIC) T. mentagrophytes [4]: 10 ng/mL (≈ 0.0264 µM)
SMILES: CO/N=C/c1cnc(C2CS/C(=C(/C#N)n3cncn3)S2)c(Cl)c1 (stereo not drawn) [compound 19]

A. fumigatus (MIC) ([2]; Table 23, 35° C. for 48 hr): 5 ng/mL
C. albicans (MIC) ([3]; Table 23, 35° C. for 24 hr): 5 ng/mL
SMILES: CCOC(=O)Nc1cnc([C@@H]2CS/C(=C(/C#N)n3cncn3)S2)c(Cl)c1 [compound 79]

A. fumigatus (MIC) ([2]; Table 23, 35° C. for 48 hr): 2.5 ng/mL
C. albicans (MIC) ([3]; Table 23, 35° C. for 24 hr): 0.63 ng/mL
SMILES: N#C/C(=C1/SC[C@@H](c2ncc(NC(=O)OCC3CC3)cc2Cl)S1)n1cncn1 [compound 92]

A. fumigatus (MIC) ([2]; Table 23, 35° C. for 48 hr): 2.5 ng/mL
C. albicans (MIC) ([3]; Table 23, 35° C. for 24 hr): 2.5 ng/mL
SMILES: CCCOC(=O)Nc1cnc([C@@H]2CS/C(=C(/C#N)n3cncn3)S2)c(Cl)c1 [compound 94]

A. fumigatus (MIC) ([2]; Table 24, 35° C. for 48 hr): 5 ng/mL
C. albicans (MIC) ([3]; Table 24, 35° C. for 24 hr): 2.5 ng/mL
SMILES: N#C/C(=C1/SC[C@@H](c2ncc(NC(=O)OCC3CC3(F)F)cc2Cl)S1)n1cncn1 (stereo partly drawn) [compound 130]
